Entries after “also recorded” stand apart in the source; their conditions may differ. Where two headings read alike, the source gives them in different places. Where a SMILES comes first, the peptide text is derived from it. [ ]: non-standard residue; d: D form. The star is where a group is joined. Nle = CCCC[C@H](N)C(=O)O; Cbz = O=C(OCc1ccccc1)*
Key:
APP [1] = test: Western blot analysis of APP C-terminal fragments (C99, C83, C470, ~55/~85-kDa CTFs) in AC29 cells stably transfected with APP; type: cell-based, human; set-up: steady state levels of C99 / APP-CTF levels (C99, C83, C470) compared with ALLN results: dose or concentration left out as unconfirmed
Description: Wild-type (WT) and cholesterol mutant (AC29 and 25RA) CHO cell lines were grown in Dulbecco's Modified Eagle Medium (DMEM) and Nutrient Mixture F-12 Ham (Sigma-Aldrich, St. Louis, Mo.), respectively. Media were supplemented with 10% (v/v) FBS (Atlanta Biologicals, Norcross, Ga.), 1% (v/v) L-Glutamine-Penicillin-Streptomycin solution (Sigma-Aldrich), and 0.4% (v/v) G418 Sulfate (Calbiochem, La Jolla, Calif.) as selection marker for cells stably transfected with cDNA constructs expressing APP751 or APP(ES/AA), and hygromycin for […]-[…] in a […] TOPO expression vector (Invitrogen, Carlsbad, Calif.). Cells were cultured at 37° C. in a water-saturated air/CO2 atmosphere. The following antibodies against APP were used throughout this study: 22C11 (monoclonal, against N-terminus; Chemicon International, Temecula, Calif.); 369 (monoclonal, against C-terminus; generous gift from Dr. Sam Gandy, Farber Institute for Neuroscience, Thomas Jefferson University, Philadelphia, Pa.); C7 and C8 (against C-terminus; generous gift from Dr. Dennis J. Selkoe, Harvard Medical School, Boston, Mass.); 4G8 (monoclonal, against […]β; Endogen, Woburn, Mass.); 6E10 (monoclonal, against residues 1-17 of Aβ; Senetek, St. Louis, Mo.). Antibodies against calreticulin (ER marker), GM130 (Golgi marker), and EEA-1 (early endosomes) were obtained from StressGen Biotechnologies Corp. (Victoria BC, Canada) and Transduction Laboratories (Lexington, Ky.). Anti-V5 antibody was from Invitrogen (Carlsbad, Calif.). Additional materials used in this study include the γ-secretase inhibitor DAPT (generous gift from Dr. Rudolph E. Tanzi, Massachusetts General Hospital, Charlestown, Mass.), the β-secretase inhibitor Z-VLL-CHO (Calbiochem, La Jolla, Calif.), ALLN (Calbiochem), lactacystin (Sigma-Aldrich), ammonium chloride (Sigma-Aldrich), chloroquine (Sigma-Aldrich), methyl-(3-cyclodextrin (Sigma-Aldrich), and mevastatin (Sigma).

AC29 cells [2] = test: Cholesterol determinations (intracellular FC and CE pools); type: cell-based; set-up: cholesterol levels: dose or concentration left out as unconfirmed; conditions: AC29 cells stably transfected with APP
Description: For the determinations of intracellular pools of FC and CE, cells were first incubated ad equilibrium (for 3 days) in the presence of [^14C]Acetic acid (57.0 mCi/mmol) (Amersham Life Science, Elk Grove, Ill.), then washed twice in PBS and extracted in chloroform/methanol (2:1; v/v). The chloroform phase was dried, resuspended again in chloroform, and applied with standards to a Silica Gel-G (EM Science, Gibbstown, N.J.) Thin Layer Chromatography (TLC). Plates were developed in hexane/ethyl ether/acetic acid (87:20:1, v/v) and visualized with […]. Spots were scraped and counted in a liquid scintillation counter.

AC29 cells [3] = test: Cell viability by release of lactate-dehydrogenase (LDH) into the media; type: cell-based; conditions: mβ-CD for 24 hours
Description: To establish whether the generation of the 55- and 85-kDa APP-CTFs was affected by FC in the absence of changes in CEs, we depleted AC29 cells of cholesterol using a combination of methyl β-cyclodextrin (m#-CD), a sterol-binding molecule, and mevastatin, an HMG-CoA reductase inhibitor. In our studies, mβ-CD was used for 24 hours to allow for cellular cholesterol to reach equilibrium. Cell viability was not affected, as assessed by the release of the cytosolic enzyme lactate-dehydrogenase (LDH) into the media. […] However, it is important to note that normalized FC in AC29 cells only recovered 50% of the Aβ secreted by WT CHO cells (FIG. 2B), the other 50% still missing presumably due to the absence of CE synthesis in these cells. Both ˜55- and ˜85-kDa APP-CTFs were undetectable after successful normalization of FC (FIG. 2C).

APP [4] = target: APP (Homo sapiens, UniProt P05067); test: In vitro assays of APP degradation by recombinant HtrA2; type: biochemical
Source text: We determined that HtrA2 could serve as a chaperone binding to APP that under cellular stress could switch from chaperone to a protease that degrades misfolded APP. AC29 cells have elevated free (membrane) cholesterol level that may cause ER stress. In AC29 cells, levels of mature form of HtrA2 were elevated in the ER and Golgi as compared to the parental CHO cells (FIG. 10). Furthermore, HtrA2 localized to the cell surface in AC29 cells but not in the parental CHO cells (FIG. 11). Also we determined that HtrA2 co-purified with APP from mammalian cells (FIG. 10) and also co-immunoprecipitated with APP. In in vitro assays, recombinant HtrA2 degraded APP.

Chain of APP (Homo sapiens, UniProt P05067) (P05067 18-770): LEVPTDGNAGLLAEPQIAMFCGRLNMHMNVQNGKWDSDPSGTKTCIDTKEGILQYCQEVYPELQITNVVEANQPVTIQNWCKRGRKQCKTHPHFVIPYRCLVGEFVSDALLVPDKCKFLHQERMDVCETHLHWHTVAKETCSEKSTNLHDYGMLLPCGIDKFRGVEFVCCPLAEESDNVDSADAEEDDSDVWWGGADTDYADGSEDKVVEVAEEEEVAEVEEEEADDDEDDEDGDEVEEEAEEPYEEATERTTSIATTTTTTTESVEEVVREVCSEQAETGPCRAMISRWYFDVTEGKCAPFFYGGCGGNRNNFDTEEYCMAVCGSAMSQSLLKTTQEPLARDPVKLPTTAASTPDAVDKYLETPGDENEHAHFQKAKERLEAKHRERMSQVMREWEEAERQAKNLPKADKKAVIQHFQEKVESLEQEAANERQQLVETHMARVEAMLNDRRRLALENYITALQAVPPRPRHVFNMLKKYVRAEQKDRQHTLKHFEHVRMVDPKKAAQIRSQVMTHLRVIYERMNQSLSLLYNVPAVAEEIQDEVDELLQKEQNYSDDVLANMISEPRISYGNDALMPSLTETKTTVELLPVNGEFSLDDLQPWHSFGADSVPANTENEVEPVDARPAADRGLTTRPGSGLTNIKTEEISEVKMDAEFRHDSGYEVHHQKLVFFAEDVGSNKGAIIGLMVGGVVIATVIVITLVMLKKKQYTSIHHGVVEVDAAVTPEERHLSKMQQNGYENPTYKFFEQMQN

CC(C)C[C@@H](C=O)NC(=O)[C@H](CC(C)C)NC(=O)[C@@H](NC(=O)OCc1ccccc1)C(C)C [Z-VLL-CHO] (Cbz-Val-Leu-Leu-aldehyde)
increase in steady-state levels of C470 (APP [1]; Z-VLL-CHO (0.5 mM) alone, 24 hours): not evident

CCN(CC)CCCC(C)Nc1ccnc2cc(Cl)ccc12 (stereo not shown) [chloroquine]
steady-state levels of C470 (APP [1]): no effect; also recorded: did not affect

CC[C@H](C)C(=O)O[C@H]1CCC=C2C=C[C@H](C)[C@H](CC[C@@H]3C[C@@H](O)CC(=O)O3)[C@H]21 [Mevastatin, mevastatin]
cholesterol levels (AC29 cells [2]): did not induce significant changes

C[C@H](NC(=O)Cc1cc(F)cc(F)c1)C(=O)N[C@H](C(=O)OC(C)(C)C)c1ccccc1 [DAPT]
C83 levels (APP [1]; 250 nM DAPT, antibody C7): increased

Cl.N [ammonium chloride]
steady-state levels of C470 (APP [1]; ammonium chloride (NH4Cl, 10 mM)): no effect; also recorded: did not affect

CCCC[C@@H](C=O)NC(=O)[C@H](CC(C)C)NC(=O)[C@H](CC(C)C)NC(C)=O [ALLN] (Ac-Leu-Leu-[Nle]-aldehyde)
steady state levels of C99 (APP [1]; alone, 24 hours): increased

CC(=O)N[C@@H](CSC(=O)[C@]1([C@@H](O)C(C)C)NC(=O)[C@H](C)[C@@H]1O)C(=O)O [lactacystin]
APP-CTF levels (C99, C83, C470) compared with ALLN results (APP [1]; lactacystin instead of ALLN, with or without Z-VLL-CHO, 24 hours): Very similar results

methyl β-cyclodextrin [mβ-CD]
Cell viability (LDH release into the media) (AC29 cells [3]): not affected | FC levels (AC29 cells [2]; mβ-CD (1 mM) alone): reduced, but did not normalize; also recorded: reduce but did not normalize

B1: recombinant HtrA2: serine protease containing a PDZ domain; protein with ζ cleavage activity (protein, UniProt O43464 134-458, looked up)
Serine protease HTRA2, …: AVPSPPPASPRSQYNFIADVVEKTAPAVVYIEILDRHPFLGREVPISNGSGFVVAADGLIVTNAHVVADRRRVRVRLLSGDTYEAVVTAVDPVADIATLRIQTKEPLPTLPLGRSADVRQGEFVVAMGSPFALQNTITSGIVSSAQRPARDLGLPQTNVEYIQTDAAIDFGNSGGPLVNLDGEVIGVNTMKVTAGISFAIPSDRLREFLHRGEKKNSSSGISGSQRRYIGVMMLTLSPSILAELQLREPSFPDVQHGVLIHKVILGSPAHRAGLRPGDVILAIGEQMVQNAEDVYEAVRTQSQLAVQIRRGRETLTLYVTPEVTE
degradation of APP (APP [4]): degraded APP
